Results: the supplement of paper PMC11061612

Assays:
Carboplatin = compound: C1CC(C1)(C(=O)[O-])C(=O)[O-].N.N.[Pt+2] [Carboplatin]; details: max 10 µM
Procedure, shortened: (§1)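 In 1536-well plates, cancer cell lines in 7.5 μl DMEM/F12 or RPMI with 10% FBS spent 24 hours at 37°C and 5% CO2 and were then dosed for 72 hours with final DMSO typically 0.2%. Viability was read by CellTiter-Glo 2.0 luminescence and scaled between blank-well and DMSO-well means. The single-agent IC50 was fitted from dose responses using a logistic curve in a non-linear mixed effects model, and that logistic curve had two parameters.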

AZD5363 = compound: C1CN(CCC1(C(=O)N[C@@H](CCO)C2=CC=C(C=C2)Cl)N)C3=NC=NC4=C3C=CN4 [AZD5363]; details: max 10 µM
Procedure, shortened: as §1

AZD1775 = compound: C=CCn1c(=O)c2cnc(Nc3ccc(N4CCN(C)CC4)cc3)nc2n1-c1cccc(C(C)(C)O)n1 [AZD1775]; details: max 3 µM
Procedure, shortened: as §1

Trametinib = compound: CC(=O)Nc1cccc(-n2c(=O)n(C3CC3)c(=O)c3c(Nc4ccc(I)cc4F)n(C)c(=O)c(C)c32)c1 [Trametinib]; details: max 1 µM
Procedure, shortened: as §1

Paclitaxel = compound: CC(=O)O[C@H]1C(=O)[C@@]2(C)[C@H]([C@H](OC(=O)c3ccccc3)[C@]3(O)C[C@H](OC(=O)[C@H](O)[C@@H](NC(=O)c4ccccc4)c4ccccc4)C(C)=C1C3(C)C)[C@]1(OC(C)=O)CO[C@@H]1C[C@@H]2O [Paclitaxel]; details: max 3 µM
Procedure, shortened: as §1

Palbociclib = compound: CC(=O)c1c(C)c2cnc(Nc3ccc(N4CCNCC4)cn3)nc2n(C2CCCC2)c1=O [Palbociclib]; details: max 10 µM
Procedure, shortened: as §1

AZD1390 = compound: CC(C)n1c(=O)n(C)c2cnc3cc(F)c(-c4ccc(OCCCN5CCCCC5)nc4)cc3c21 [AZD1390]; details: max 0.3 µM
Procedure, shortened: as §1

Venetoclax = compound: CC1(C)CCC(CN2CCN(c3ccc(C(=O)NS(=O)(=O)c4ccc(NCC5CCOCC5)c([N+](=O)[O-])c4)c(Oc4cnc5[nH]ccc5c4)c3)CC2)=C(c2ccc(Cl)cc2)C1 [Venetoclax]; details: max 1 µM
Procedure, shortened: as §1

Dasatinib = compound: CC1=C(C(=CC=C1)Cl)NC(=O)C2=CN=C(S2)NC3=CC(=NC(=N3)C)N4CCN(CC4)CCO [Dasatinib]; details: max 2 µM
Procedure, shortened: as §1

SG3199 = compound: CC1=CN2[C@@H](C1)C=NC3=CC(=C(C=C3C2=O)OC)OCCCCCOC4=C(C=C5C(=C4)N=C[C@@H]6CC(=CN6C5=O)C)OC [SG3199]; details: max 0.001 µM
Procedure, shortened: as §1

AZD2811 = compound: CCN(CCO)CCCOc1ccc2c(Nc3cc(CC(=O)Nc4cccc(F)c4)[nH]n3)ncnc2c1 [AZD2811]; details: max 1 µM
Procedure, shortened: as §1

SN-38 = compound: CCc1c2c(nc3ccc(O)cc13)-c1cc3c(c(=O)n1C2)COC(=O)[C@]3(O)CC [SN-38]; details: max 0.3 µM
Procedure, shortened: as §1

AZD0156 = compound: CN(C)CCCOc1ccc(-c2ccc3ncc4c(c3c2)n(C2CCOCC2)c(=O)n4C)cn1 [AZD0156]; details: max 3 µM
Procedure, shortened: as §1

AZD4320 = compound: CN(CC[C@H](CSC1=CC=CC=C1)NC2=C(C=C(C=C2)S(=O)(=O)NC(=O)C3=CC=C(C=C3)N4CCC(CC4)[C@H](C5=CC=CC=C5C6=CC=C(C=C6)Cl)O)S(=O)(=O)C(F)(F)F)CCO [AZD4320]; details: max 1 µM
Procedure, shortened: as §1

Alisertib = compound: COc1cc(Nc2ncc3c(n2)-c2ccc(Cl)cc2C(c2c(F)cccc2OC)=NC3)ccc1C(=O)O [Alisertib]; details: max 10 µM
Procedure, shortened: as §1

Etoposide = compound: COc1cc([C@@H]2c3cc4c(cc3[C@@H](O[C@@H]3O[C@@H]5CO[C@@H](C)O[C@H]5[C@H](O)[C@H]3O)[C@H]3COC(=O)[C@H]23)OCO4)cc(OC)c1O [Etoposide]; details: max 10 µM
Procedure, shortened: as §1

Gefitinib = compound: COc1cc2ncnc(Nc3ccc(F)c(Cl)c3)c2cc1OCCCN1CCOCC1 [Gefitinib]; details: max 10 µM
Procedure, shortened: as §1

Prexasertib = compound: COc1cccc(OCCCN)c1-c1cc(Nc2cnc(C#N)cn2)n[nH]1 [Prexasertib]; details: max 1 µM
Procedure, shortened: as §1

Doxorubicin = compound: COc1cccc2c1C(=O)c1c(O)c3c(c(O)c1C2=O)C[C@@](O)(C(=O)CO)C[C@@H]3O[C@H]1C[C@H](N)[C@H](O)[C@H](C)O1 [Doxorubicin]; details: max 1 µM
Procedure, shortened: as §1

AZD5153 = compound: COc1nnc2ccc(N3CCC(c4ccc(OCCN5CCN(C)C(=O)[C@H]5C)cc4)CC3)nn12 [AZD5153]; details: max 1 µM
Procedure, shortened: as §1

Lapatinib = compound: CS(=O)(=O)CCNCc1ccc(-c2ccc3ncnc(Nc4ccc(OCc5cccc(F)c5)c(Cl)c4)c3c2)o1 [Lapatinib]; details: max 10 µM
Procedure, shortened: as §1

AZD8186 = compound: C[C@@H](Nc1cc(F)cc(F)c1)c1cc(C(=O)N(C)C)cc2c(=O)cc(N3CCOCC3)oc12 [AZD8186]; details: max 10 µM
Procedure, shortened: as §1

Crizotinib = compound: C[C@@H](Oc1cc(-c2cnn(C3CCNCC3)c2)cnc1N)c1c(Cl)ccc(F)c1Cl [Crizotinib]; details: max 10 µM
Procedure, shortened: as §1

Savolitinib = compound: C[C@@H](c1ccc2nccn2c1)n1nnc2ncc(-c3cnn(C)c3)nc21 [Savolitinib]; details: max 1 µM
Procedure, shortened: as §1

AZD6738 = compound: C[C@@H]1COCCN1C2=NC(=NC(=C2)C3(CC3)[S@](=N)(=O)C)C4=C5C=CNC5=NC=C4 [AZD6738]; details: max 10 µM
Procedure, shortened: as §1

AZD5991 = compound: Cc1c2c(nn1C)CSCc1cc(n(C)n1)CSc1cc(c3ccccc3c1)OCCCc1c(C(=O)O)n(C)c3c-2c(Cl)ccc13 [AZD5991]; details: max 1 µM
Procedure, shortened: as §1

AZD7648 = compound: Cc1cc2ncnn2cc1Nc1ncc2c(n1)n(C1CCOCC1)c(=O)n2C [AZD7648]; details: max 10 µM
Procedure, shortened: as §1

Taselisib = compound: Cc1nc(-c2cn3c(n2)-c2ccc(-c4cnn(C(C)(C)C(N)=O)c4)cc2OCC3)n(C(C)C)n1 [Taselisib]; details: max 10 µM
Procedure, shortened: as §1

Selumetinib = compound: Cn1cnc2c(F)c(Nc3ccc(Br)cc3Cl)c(C(=O)NOCCO)cc21 [Selumetinib]; details: max 10 µM
Procedure, shortened: as §1

SRA737 = compound: N#Cc1cnc(Nc2cc(NC[C@H]3CNCCO3)c(C(F)(F)F)cn2)cn1 [SRA737]; details: max 10 µM
Procedure, shortened: as §1

MK-2206 = compound: NC1(c2ccc(-c3nc4ccn5c(=O)[nH]nc5c4cc3-c3ccccc3)cc2)CCC1 [MK-2206]; details: max 10 µM
Procedure, shortened: as §1

Gemcitabine = compound: Nc1ccn([C@@H]2O[C@H](CO)[C@@H](O)C2(F)F)c(=O)n1 [Gemcitabine]; details: max 0.3 µM
Procedure, shortened: as §1

[1] = compound: O=C(Nc1ccc2[nH]nc(-c3ccncc3)c2c1)[C@@H]1CCN(CC(=O)N2CCN(c3ccc(-c4ncccn4)cc3)CC2)C1; details: max 5 µM
Procedure, shortened: as §1

Olaparib = compound: O=C(c1cc(Cc2n[nH]c(=O)c3ccccc23)ccc1F)N1CCN(C(=O)C2CC2)CC1 [Olaparib]; details: max 10 µM
Procedure, shortened: as §1

5-Fluorouracil = compound: O=c1[nH]cc(F)c(=O)[nH]1 [5-Fluorouracil]; details: max 20 µM
Procedure, shortened: as §1

Cell Line | IC50, cell viability 72 h (Carboplatin) | IC50, cell viability 72 h (AZD5363) | IC50, cell viability 72 h (AZD1775) | IC50, cell viability 72 h (Trametinib) | IC50, cell viability 72 h (Paclitaxel) | IC50, cell viability 72 h (Palbociclib) | IC50, cell viability 72 h (AZD1390) | IC50, cell viability 72 h (Venetoclax) | IC50, cell viability 72 h (Dasatinib) | IC50, cell viability 72 h (SG3199) | IC50, cell viability 72 h (AZD2811) | IC50, cell viability 72 h (SN-38) | IC50, cell viability 72 h (AZD0156) | IC50, cell viability 72 h (AZD4320) | IC50, cell viability 72 h (Alisertib) | IC50, cell viability 72 h (Etoposide) | IC50, cell viability 72 h (Gefitinib) | IC50, cell viability 72 h (Prexasertib) | IC50, cell viability 72 h (Doxorubicin) | IC50, cell viability 72 h (AZD5153) | IC50, cell viability 72 h (Lapatinib) | IC50, cell viability 72 h (AZD8186) | IC50, cell viability 72 h (Crizotinib) | IC50, cell viability 72 h (Savolitinib) | IC50, cell viability 72 h (AZD6738) | IC50, cell viability 72 h (AZD5991) | IC50, cell viability 72 h (AZD7648) | IC50, cell viability 72 h (Taselisib) | IC50, cell viability 72 h (Selumetinib) | IC50, cell viability 72 h (SRA737) | IC50, cell viability 72 h (MK-2206) | IC50, cell viability 72 h (Gemcitabine) | IC50, cell viability 72 h [1] | IC50, cell viability 72 h (Olaparib) | IC50, cell viability 72 h (5-Fluorouracil)
FLO-1 (Esophageal Adenocarcinoma) | > 10000 nM | > 10000 nM | 266 nM | > 1000 nM | 5.42 nM | > 10000 nM | > 300 nM | > 1000 nM | 64.8 nM | > 1 nM | > 1000 nM | 201 nM | > 3000 nM | > 1000 nM | 7300 nM | 2550 nM | > 10000 nM | 99.3 nM | 225 nM | 793 nM | > 10000 nM | > 10000 nM | 9360 nM | > 1000 nM | > 10000 nM | > 1000 nM | > 10000 nM | 8830 nM | > 10000 nM | > 10000 nM | > 10000 nM | 93.8 nM | > 5000 nM | > 10000 nM | 7080 nM
HCC-44 (Lung Adenocarcinoma) | > 10000 nM | 9960 nM | 934 nM | 236 nM | 13.6 nM | > 10000 nM | > 300 nM | > 1000 nM | 705 nM | – | > 1000 nM | 177 nM | > 3000 nM | > 1000 nM | – | > 10000 nM | > 10000 nM | – | – | 290 nM | > 10000 nM | > 10000 nM | 8920 nM | > 1000 nM | > 10000 nM | > 1000 nM | > 10000 nM | 2240 nM | > 10000 nM | > 10000 nM | > 10000 nM | 225 nM | 2800 nM | > 10000 nM | > 20000 nM
KYM-1 (Rhabdomyosarcoma) | > 10000 nM | 7860 nM | 926 nM | > 1000 nM | 5.57 nM | 522 nM | > 300 nM | > 1000 nM | > 2000 nM | > 1 nM | > 1000 nM | 23.5 nM | > 3000 nM | > 1000 nM | > 10000 nM | 668 nM | > 10000 nM | 33.8 nM | 485 nM | 54.8 nM | > 10000 nM | > 10000 nM | 2940 nM | > 1000 nM | 2640 nM | > 1000 nM | > 10000 nM | > 10000 nM | > 10000 nM | 846 nM | > 10000 nM | 5.74 nM | > 5000 nM | > 10000 nM | 8560 nM
KYSE-70 (Esophageal Squamous Cell Carcinoma) | > 10000 nM | > 10000 nM | > 3000 nM | > 1000 nM | > 3000 nM | > 10000 nM | > 300 nM | > 1000 nM | > 2000 nM | > 1 nM | > 1000 nM | > 300 nM | > 3000 nM | > 1000 nM | > 10000 nM | > 10000 nM | > 10000 nM | 241 nM | > 1000 nM | > 1000 nM | > 10000 nM | > 10000 nM | > 10000 nM | > 1000 nM | > 10000 nM | > 1000 nM | > 10000 nM | 4070 nM | > 10000 nM | > 10000 nM | > 10000 nM | > 300 nM | > 5000 nM | > 10000 nM | > 20000 nM
LAMA-84 (Chronic Myelogenous Leukemia) | > 10000 nM | > 10000 nM | 351 nM | 16.3 nM | 37 nM | 3090 nM | > 300 nM | > 1000 nM | < 2 nM | > 1 nM | > 1000 nM | 24.6 nM | > 3000 nM | 486 nM | 305 nM | 8280 nM | > 10000 nM | 17.3 nM | > 1000 nM | 146 nM | > 10000 nM | > 10000 nM | 527 nM | > 1000 nM | 2020 nM | > 1000 nM | > 10000 nM | > 10000 nM | 1570 nM | 2110 nM | 5120 nM | 24.6 nM | 915 nM | > 10000 nM | > 20000 nM
